Measured values as given in publication PMC13371181, “A paracrine-to-autocrine shunt of GREM1 fuels colorectal cancer metastasis via ACVR1C” (Molecular Cancer, 2026).
Entries after “also recorded” stand apart in the source; their conditions may differ. Peptide text beside a SMILES is read from it.

Legend:
GREM1 [1] = conditions: monoclonal antibodies; cited from earlier work
Text: The advent of cancer genomics and precision medicine has enabled targeted therapies for advanced CRC, with agents against VEGF, EGFR, BRAF V600E, and HER2 showing efficacy in selected patient subsets. However, issues like limited bioavailability, resistance, and narrow indications restrict their broader use. Unlike mutation-specific targets, GREM1 is a widely expressed cytokine with sustained, context-dependent activity, making it a promising and potentially broadly applicable therapeutic target in CRC. Therapeutic targeting of GREM1 to date has focused largely on full neutralization str ...

GREM1–ACVR1C = experiment: Pull-down assay, blocking of GREM1–ACVR1C-ECD binding; design: species or system human; conditions: GREM1-His and ACVR1C-ECD-Fc, Coomassie Brilliant Blue
Description: Protein pull-down assay was performed using purified recombinant human His-tagged GREM1 protein and recombinant human ACVR1C-ECD and Fc chimera protein. Protein was enriched by Pierce Protein A magnetic beads (MCE, HY-K0202) or Ni Sepharose 6 Fast Flow (GE, 17531801) following the manufacturer’s instructions. Pulled-down proteins were detected by Coomassie Brilliant Blue staining.

GREM1 [2] = target: T1, GREM1 (Homo sapiens, UniProt O60565); experiment: MST binding of ACVR1C peptide to GREM1-His; conditions: GREM1 for ACVR1C peptide versus ACVR1C-ECD
T1 construct: His; purchased R&D 5190-GR
T1 sequence (O60565 25-184): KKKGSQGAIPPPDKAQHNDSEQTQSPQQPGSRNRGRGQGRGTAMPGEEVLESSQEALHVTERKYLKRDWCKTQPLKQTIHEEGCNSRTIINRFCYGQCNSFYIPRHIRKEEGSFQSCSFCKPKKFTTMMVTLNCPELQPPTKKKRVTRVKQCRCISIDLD
Description: MST was carried out on a Monolith NT.115 instrument (NanoTemper Technologies GmbH, MO-L011). To evaluate ACVR1C-ECD or ACVR1C peptide or ACVR1C-ECD-double mutant (E85A/T101A) binding to GREM1-His or ACTIVIN B-His, an increasing concentration of purified ACVR1C-ECD-Fc protein (0–27.5 µM) or ACVR1C peptide (0–2.3 µM) or ACVR1C-ECD-double mutant (0–27.5 µM) was incubated with 50 nM red-fluorescently labeled (NanoTemper Technologies GmbH, MO-L011) GREM1-His protein (R&D, 5190-GR) or ACTIVIN B-His protein (SinoBiological, 10814-H08H). Experiments were carried out in a PBS buffer pH 7.4 using premium capillaries (NanoTemper Technologies GmbH, MO-K025).

HCT116-luc cells = experiment: Spleen-to-liver metastasis model, HCT116-luc (pLV-GREM1) in NOG mice; format: in vivo, human cells in NOG mice; conditions: HCT116-luc (pLV-GREM1) injected in the spleen, ACVR1C peptide 10 mg/kg i.v. (tail vein) every other day from 48 h after cell injection, IVIS, n = 5 mice per group
Description: For spleen-to-liver metastasis model, 5 × 10^5 MC38-luc cells or MC38-luc (pLV-Grem1) cells were resuspended in 50 µL of PBS and injected into the spleen of GD mice or control mice (Grem1-CreER^T2/Rosa-LSL-DTA mice) (n = 5 mice in each group). 5 × 10^5 HCT116-luc cells carrying a pLV or pLV-GREM1 were resuspended in 50 µL of PBS and intrasplenically injected into NOG mice (n = 5 mice in each group). ACVR1C peptide was administered via tail vein injection at a dose of 10 mg/kg once every other day.

affinity compared with ACVR1C-ECD (GREM1 [2])	Molecule	efficacy in preclinical models (GREM1 [1])	blocking of GREM1–ACVR1C binding (GREM1–ACVR1C)	liver metastasis (HCT116-luc cells)	liver metastasis (HCT116-luc cells; listed as GREM1-blocking peptide)
	Ginisortamab: fully humanized anti-GREM1 monoclonal antibody	have shown efficacy in preclinical models			
comparable to that for the ACVR1C-ECD	CC[C@H](C)[C@H](NC(=O)[C@H](CC(N)=O)NC(=O)[C@H](CC(N)=O)NC(=O)[C@H](CS)NC(=O)[C@H](Cc1ccccc1)NC(=O)[C@H](CC(=O)O)NC(=O)[C@@H](NC(=O)[C@H](Cc1ccccc1)NC(=O)[C@H](CS)NC(=O)[C@H](CS)NC(=O)[C@H](CCC(=O)O)NC(=O)[C@@H](N)[C@@H](C)O)[C@@H](C)O)C(=O)N[C@H](C(=O)N[C@@H](CC(C)C)C(=O)N[C@@H](Cc1c[nH]cn1)C(=O)N[C@@H](CC(C)C)C(=O)N1CCC[C@H]1C(=O)N[C@H](C(=O)N[C@@H](C)C(=O)O)[C@@H](C)O)[C@@H](C)O [ACVR1C peptide] (H-TECCFTDFCNNITLHLPTA-OH; N-terminus and C-terminus assumed)		significantly blocked the GREM1–ACVR1C binding; also recorded: blocked the interaction between GREM1 and ACVR1C-ECD	effectively suppressed the increase in liver metastasis induced by tumor-specific GREM1 overexpression	significantly impairs CRC metastasis in vivo
